Where a name gives a salt, the structure may show the parent alone.
What was measured:
[1] = molecular target: D(2) dopamine receptor (Homo sapiens, UniProt P14416)
[2] = molecular target: T1, Alpha-1A adrenergic receptor (Homo sapiens, UniProt P35348)
T1 sequence (P35348 whole entry): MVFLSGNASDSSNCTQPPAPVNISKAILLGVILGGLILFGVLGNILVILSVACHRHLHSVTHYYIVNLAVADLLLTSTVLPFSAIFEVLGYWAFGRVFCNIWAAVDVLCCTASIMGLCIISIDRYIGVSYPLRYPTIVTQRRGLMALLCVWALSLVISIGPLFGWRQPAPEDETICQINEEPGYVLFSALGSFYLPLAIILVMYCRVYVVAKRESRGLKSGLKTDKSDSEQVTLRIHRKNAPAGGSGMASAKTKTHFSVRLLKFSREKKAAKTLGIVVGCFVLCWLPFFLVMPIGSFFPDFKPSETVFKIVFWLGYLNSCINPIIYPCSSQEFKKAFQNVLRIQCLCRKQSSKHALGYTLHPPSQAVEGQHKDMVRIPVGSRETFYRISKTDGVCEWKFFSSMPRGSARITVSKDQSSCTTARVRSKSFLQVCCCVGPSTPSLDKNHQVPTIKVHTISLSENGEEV

[3] = molecular target: T2, Alpha-2A adrenergic receptor (Homo sapiens, UniProt P08913)
T2 sequence (P08913 whole entry): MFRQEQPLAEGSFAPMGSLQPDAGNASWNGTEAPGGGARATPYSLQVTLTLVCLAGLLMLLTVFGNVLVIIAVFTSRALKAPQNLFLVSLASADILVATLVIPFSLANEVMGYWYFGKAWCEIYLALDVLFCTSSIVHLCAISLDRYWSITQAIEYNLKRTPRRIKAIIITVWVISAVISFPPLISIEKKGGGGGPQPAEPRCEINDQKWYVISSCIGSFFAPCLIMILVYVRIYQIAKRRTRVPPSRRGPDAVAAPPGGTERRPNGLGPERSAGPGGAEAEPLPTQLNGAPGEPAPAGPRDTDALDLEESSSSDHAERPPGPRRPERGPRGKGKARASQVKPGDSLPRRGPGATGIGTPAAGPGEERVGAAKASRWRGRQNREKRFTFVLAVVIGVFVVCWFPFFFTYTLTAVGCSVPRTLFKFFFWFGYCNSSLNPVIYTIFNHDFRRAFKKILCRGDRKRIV

D(2) dopamine receptor, sequence (P14416 whole entry): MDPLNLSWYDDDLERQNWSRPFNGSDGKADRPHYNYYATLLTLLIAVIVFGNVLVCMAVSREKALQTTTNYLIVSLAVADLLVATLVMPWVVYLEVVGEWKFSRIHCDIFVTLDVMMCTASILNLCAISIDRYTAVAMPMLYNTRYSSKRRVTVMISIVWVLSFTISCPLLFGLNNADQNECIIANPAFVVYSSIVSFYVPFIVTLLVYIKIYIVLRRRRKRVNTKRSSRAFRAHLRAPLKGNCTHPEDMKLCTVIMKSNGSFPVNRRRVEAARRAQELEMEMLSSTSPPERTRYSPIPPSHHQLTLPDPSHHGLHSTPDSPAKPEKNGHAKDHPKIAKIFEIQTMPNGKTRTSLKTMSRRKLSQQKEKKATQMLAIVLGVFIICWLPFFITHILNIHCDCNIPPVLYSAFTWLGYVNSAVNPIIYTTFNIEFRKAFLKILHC

Question: For CN(C)CCCN1c2ccccc2Sc2ccc(C(F)(F)F)cc21 [TRIFLUPROMAZINE], which Ki [1] is on record?
Answer: 2.8 nM

Question: CN1CCCCC1CCN1c2ccccc2Sc2ccc([S+](C)[O-])cc21 (stereo unspecified) was tested. Which Ki [1] did it give?
Answer: 19 nM

Question: And the Ki [2]?
Answer: 2 nM

Question: And the Ki [3]?
Answer: 1600 nM

Question: How did the Ki [1] turn out when CN1CCN(CCCN2c3ccccc3Sc3ccc(C(F)(F)F)cc32)CC1 was run?
Answer: 2.6 nM

Question: Which Ki [1] does the source give for CN(C)CCCN1c2ccccc2Sc2ccccc21 here?
Answer: 160 nM

Question: What about the Ki [2] of the same molecule?
Answer: 6 nM

Question: What about the Ki [3] of the same molecule?
Answer: 900 nM

Question: How did the Ki [2] turn out when OCCN1CCN(CCCN2c3ccccc3Sc3ccc(C(F)(F)F)cc32)CC1 [2-[4-[3-[2-(trifluoromethyl)phenothiazin-10-yl]propyl]piperazin-1-yl]ethanol;hydrochloride] was run?
Answer: […]

Question: How did the Ki [2] turn out when O=C(CCCN1CCC2(CC1)C(=O)NCN2c1ccccc1)c1ccc(F)cc1 [8-[4-(4-fluorophenyl)-4-oxidanylidene-butyl]-1-phenyl-1,3,8-triazaspiro[4.5]decan-4-one] was run?
Answer: 1.2 nM

Question: What about the Ki [3] of the same molecule?
Answer: 660 nM

Question: CN1CCN(CC/C=C2/c3ccccc3Sc3ccc(S(=O)(=O)N(C)C)cc32)CC1 [MLS000028463] was tested. Which Ki [1] did it give?
Answer: 0.45 nM

Question: What about the Ki [2] of the same molecule?
Answer: 11 nM

Question: What about the Ki [3] of the same molecule?
Answer: 200 nM

Question: Which Ki [1] does the source give for CCc1c(C)[nH]c2c1C(=O)C(CN1CCOCC1)CC2 (stereo unspecified) [Moban] here?
Answer: 120 nM

Question: For OCCN1CCN(CCCN2c3ccccc3Sc3ccc(Cl)cc32)CC1 [4-[3-(2-chlorophenothiazin-10-yl)propyl]-1-piperazineethanol], which Ki [1] is on record?
Answer: 1.4 nM

Question: CC(C)(C)[C@]1(O)CCN2C[C@H]3c4ccccc4CCc4cccc(c43)[C@@H]2C1 was tested. Which Ki [2] did it give?
Answer: 56 nM

Question: What about the Ki [3] of the same molecule?
Answer: 310 nM

Question: With CN(C)CC/C=C1\c2ccccc2Sc2ccc(Cl)cc21 as the molecule, how does the Ki [1] read?
Answer: 8 nM

Question: How did the Ki [2] turn out when CN1CCN(C2=Nc3ccccc3Oc3ccc(Cl)cc32)CC1 [13-chloro-10-(4-methylpiperazin-1-yl)-2-oxa-9-azatricyclo[9.4.0.0^{3,8}]pentadeca-1(11),3,5,7,9,12,14-heptaene] was run?
Answer: 28 nM

Reference: BindingDB's records for doi:10.1016/0014-2999(84)90478-3 (Mayo Clinic, 1984)
